In ChEMBL document CHEMBL2321738, “Metabolites of the pyrimidine amine preladenant as adenosine a2a receptor antagonists” (ACS Med Chem Lett, 2013):

Each compound was assayed against Adenosine receptor A2a (Homo sapiens, UniProt P29274) (assay: Binding affinity to human adenosine A2a receptor by competition binding assay).
Chain of Adenosine receptor A2a (P29274 whole entry): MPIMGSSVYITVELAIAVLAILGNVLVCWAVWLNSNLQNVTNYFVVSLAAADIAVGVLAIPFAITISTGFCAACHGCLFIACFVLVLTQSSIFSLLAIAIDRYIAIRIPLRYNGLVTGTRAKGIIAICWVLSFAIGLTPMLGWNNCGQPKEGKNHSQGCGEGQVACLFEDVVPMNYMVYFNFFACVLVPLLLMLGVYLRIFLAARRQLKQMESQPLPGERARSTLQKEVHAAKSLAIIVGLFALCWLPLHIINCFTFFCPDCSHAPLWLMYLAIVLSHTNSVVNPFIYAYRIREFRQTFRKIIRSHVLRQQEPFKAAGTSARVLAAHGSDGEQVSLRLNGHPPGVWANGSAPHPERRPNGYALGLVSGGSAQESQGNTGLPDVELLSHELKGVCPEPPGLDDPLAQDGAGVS

| Ki | Compound |
| --- | --- |
| > 1000 nM | COCCOc1ccc(N2CCN(CCn3ncc4c3nc(N)n3nc(C(O)CCC(=O)O)nc43)CC2)cc1 (centres undefined) |
| 1.4 nM | Nc1nc2c(cnn2CCN2CCN(c3ccc(OCC(=O)O)cc3)CC2)c2nc(-c3ccco3)nn12 |
| > 1000 nM | Nc1nc2c(cnn2CCN2CCN(c3ccc(OCC(=O)O)cc3)CC2)c2nc(C(O)CCC(=O)O)nn12 (centres undefined) |
| > 1000 nM | Nc1nc2c(cnn2CC(=O)O)c2nc(-c3ccco3)nn12 |
